# Key:
# Format in all cases: in vivo
# Kochia (Kochia scoparia) [1] = assay: Test A preemergence; details: Bassia scoparia, pre-emergence, 240 h, 0 to 100 scale where 0 is no effect and 100 is complete control, read-out: Kochia plant response rating
# Procedure, shortened: (§1)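 Seeded soil received test chemicals as a preemergence directed spray, and seedlings at one to two leaves, 2–10 cm tall, received them postemergence, in a non-phytotoxic, surfactant-containing solvent mixture. Pots were held in a greenhouse for approximately 10 d, then rated for injury from 0, no effect, to 100, complete control.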
# [2] = test system: barnyardgrass (Echinochloa crus-galli); assay: Test A preemergence; details: Echinochloa crus-galli, pre-emergence, 240 h, Preemergence
# Procedure, shortened: as §1
# [3] = test system: giant foxtail (Setaria faberii); assay: Test A preemergence; details: Setaria faberi, pre-emergence, 240 h, Preemergence
# Procedure, shortened: as §1
# [4] = test system: pigweed (Amaranthus retroflexus); assay: Test A preemergence; details: Amaranthus retroflexus, pre-emergence, 240 h, 0 to 100 scale where 0 is no effect and 100 is complete control, read-out: Pigweed plant response rating
# [5] = test system: ragweed (common ragweed, Ambrosia elatior); assay: Test A preemergence; details: Ambrosia artemisiifolia, pre-emergence, 240 h, 0 to 100 scale where 0 is no effect and 100 is complete control, read-out: Ragweed plant response rating
# Procedure, shortened: as §1
# [6] = test system: ryegrass, Italian (Italian ryegrass, Lolium multiflorum); assay: Test A preemergence; details: Lolium multiflorum, pre-emergence, 240 h, 0 to 100 scale where 0 is no effect and 100 is complete control, read-out: Ryegrass, Italian plant response rating
# Procedure, shortened: as §1
# [7] = test system: Galium (catchweed bedstraw, Galium aparine); assay: Test A postemergence; details: Galium, post-emergence, 240 h
# Procedure, shortened: as §1
# Kochia (Kochia scoparia) [8] = assay: Test A postemergence; details: Bassia scoparia, post-emergence, 240 h
# Procedure, shortened: as §1
# [9] = test system: barnyardgrass (Echinochloa crus-galli); assay: Test A postemergence; details: Echinochloa crus-galli, post-emergence, 240 h
# Procedure, shortened: as §1
# [10] = test system: blackgrass (Alopecurus myosuroides); assay: Test A postemergence; details: Alopecurus myosuroides, post-emergence, 240 h
# Procedure, shortened: as §1
# corn (Zea mays) = assay: Test A postemergence; details: Zea mays, post-emergence, 240 h
# Procedure, shortened: as §1
# [11] = test system: giant foxtail (Setaria faberii); assay: Test A postemergence; details: Setaria faberi, post-emergence, 240 h
# Procedure, shortened: as §1
# [12] = test system: pigweed (Amaranthus retroflexus); assay: Test A postemergence; details: Amaranthus retroflexus, post-emergence, 240 h
# Procedure, shortened: as §1
# [13] = test system: ragweed (common ragweed, Ambrosia elatior); assay: Test A postemergence; details: Ambrosia artemisiifolia, post-emergence, 240 h
# Procedure, shortened: as §1
# [14] = test system: ryegrass, Italian (Italian ryegrass, Lolium multiflorum); assay: Test A postemergence; details: Lolium multiflorum, post-emergence, 240 h
# Procedure, shortened: as §1
# [15] = test system: wheat (Triticum aestivum); assay: Test A postemergence; details: Triticum aestivum, post-emergence, 240 h
# Procedure, shortened: as §1
# [16] = test system: barnyardgrass (Echinochloa crus-galli); assay: Test B flooded paddy test; details: Echinochloa crus-galli, 250 g ai/ha, Flood; 0 to 100 scale where 0 is no effect and 100 is complete control; read-out: Barnyardgrass plant response rating
# Procedure, shortened: (§2)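 Greenhouse paddy pots with 2-leaf stage plants received compound by direct addition to floodwater 3 cm deep, kept at that level. Scored visually at 13–15 d versus controls (0 no effect; 100 complete control).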
# [17] = test system: ducksalad (Heteranthera limosa); assay: Test B flooded paddy test; details: Heteranthera limosa, 250 g ai/ha, Flood; 0 to 100 scale where 0 is no effect and 100 is complete control; read-out: Ducksalad plant response rating
# Procedure, shortened: as §2
# rice (Oryra sativa) = assay: Test B flooded paddy test; details: Oryza sativa, 250 g ai/ha, Flood; 0 to 100 scale where 0 is no effect and 100 is complete control; read-out: Rice plant response rating
# Procedure, shortened: as §2
# [18] = test system: sedge, umbrella (small-flower umbrella sedge, Cyperus difformis); assay: Test B flooded paddy test; details: Cyperus difformis, 250 g ai/ha, Flood; 0 to 100 scale where 0 is no effect and 100 is complete control; read-out: Sedge, Umbrella plant response rating
# Procedure, shortened: as §2
# [19] = 125 g ai/ha, preemergence, approx. 10 d
smiles,measurement,setting,value
CN1C[C@H](c2ccc(C(F)(F)F)cc2)[C@@H](C(=O)Nc2cnccc2C(F)(F)F)C1=O [Compound 1065],pest or weed control at 31 g/ha,"Kochia (Kochia scoparia) [1]; 31 g ai/ha, Preemergence",0%
same,pest or weed control at 125 g/ha,Kochia (Kochia scoparia) [1]; [19],70%
same,pest or weed control at 31 g/ha,"[2]; 31 g ai/ha, 0 to 100 scale where 0 is no effect and 100 is complete control, read-out: Barnyardgrass plant response rating",0%
same,pest or weed control at 125 g/ha,"[2]; 125 g ai/ha, visual injury rating after approximately 10 d, read-out: Barnyardgrass plant response rating (0 to 100 scale, 0 is no effect, 100 is complete control)",70%
same,pest or weed control at 31 g/ha,"[3]; 31 g ai/ha, 0 to 100 scale where 0 is no effect and 100 is complete control, read-out: Foxtail, Giant plant response rating",90%
same,pest or weed control at 125 g/ha,"[3]; 125 g ai/ha, visual injury rating after approximately 10 d, read-out: Foxtail, Giant plant response rating (0 to 100 scale, 0 is no effect, 100 is complete control)",100%
same,pest or weed control at 31 g/ha,"[4]; 31 g ai/ha, Preemergence",30%
same,pest or weed control at 125 g/ha,[4]; [19],70%
same,pest or weed control at 31 g/ha,"[5]; 31 g ai/ha, Preemergence",0%
same,pest or weed control at 125 g/ha,[5]; [19],0%
same,pest or weed control at 31 g/ha,"[6]; 31 g ai/ha, Preemergence",0%
same,pest or weed control at 125 g/ha,[6]; [19],30%
same,pest or weed control at 125 g/ha,"[7]; 125 g ai/ha, postemergence, visual injury on 0 to 100 scale (0 no effect, 100 complete control), approx. 10 d, read-out: Galium plant response rating",70%
same,pest or weed control at 31 g/ha,"[7]; Postemergence, 31 g ai/ha, visual injury after approx. 10 d, 0 to 100 scale, 0 no effect, 100 complete control, read-out: Plant response rating, Galium",40%
same,pest or weed control at 125 g/ha,"Kochia (Kochia scoparia) [8]; 125 g ai/ha, postemergence, visual injury on 0 to 100 scale (0 no effect, 100 complete control), approx. 10 d, read-out: Kochia plant response rating",40%
same,pest or weed control at 31 g/ha,"Kochia (Kochia scoparia) [8]; Postemergence, 31 g ai/ha, visual injury after approx. 10 d, 0 to 100 scale, 0 no effect, 100 complete control, read-out: Plant response rating, Kochia",0%
same,pest or weed control at 125 g/ha,"[9]; 125 g ai/ha, postemergence, visual injury on 0 to 100 scale (0 no effect, 100 complete control), approx. 10 d, read-out: Barnyardgrass plant response rating",40%
same,pest or weed control at 31 g/ha,"[9]; Postemergence, 31 g ai/ha, visual injury after approx. 10 d, 0 to 100 scale, 0 no effect, 100 complete control, read-out: Plant response rating, Barnyardgrass",0%
same,pest or weed control at 125 g/ha,"[10]; 125 g ai/ha, postemergence, visual injury on 0 to 100 scale (0 no effect, 100 complete control), approx. 10 d, read-out: Blackgrass plant response rating",50%
same,pest or weed control at 31 g/ha,"[10]; Postemergence, 31 g ai/ha, visual injury after approx. 10 d, 0 to 100 scale, 0 no effect, 100 complete control, read-out: Plant response rating, Blackgrass",0%
same,plant injury at 125 g/ha,"corn (Zea mays); 125 g ai/ha, postemergence, visual injury on 0 to 100 scale (0 no effect, 100 complete control), approx. 10 d, read-out: Corn plant response rating",20%
same,"Corn plant response rating (crop injury, 0 = no effect, 100 = complete kill) at 31 g/ha","corn (Zea mays); Postemergence, 31 g ai/ha, visual injury after approx. 10 d, 0 to 100 scale, 0 no effect, 100 complete control",0%
same,pest or weed control at 125 g/ha,"[11]; 125 g ai/ha, postemergence, visual injury on 0 to 100 scale (0 no effect, 100 complete control), approx. 10 d, read-out: Foxtail, Giant plant response rating",70%
same,pest or weed control at 31 g/ha,"[11]; Postemergence, 31 g ai/ha, visual injury after approx. 10 d, 0 to 100 scale, 0 no effect, 100 complete control, read-out: Plant response rating, Foxtail, Giant",0%
same,pest or weed control at 125 g/ha,"[12]; 125 g ai/ha, postemergence, visual injury on 0 to 100 scale (0 no effect, 100 complete control), approx. 10 d, read-out: Pigweed plant response rating",40%
same,pest or weed control at 31 g/ha,"[12]; Postemergence, 31 g ai/ha, visual injury after approx. 10 d, 0 to 100 scale, 0 no effect, 100 complete control, read-out: Plant response rating, Pigweed",0%
same,pest or weed control at 125 g/ha,"[13]; 125 g ai/ha, postemergence, visual injury on 0 to 100 scale (0 no effect, 100 complete control), approx. 10 d, read-out: Ragweed plant response rating",0%
same,pest or weed control at 31 g/ha,"[13]; Postemergence, 31 g ai/ha, visual injury after approx. 10 d, 0 to 100 scale, 0 no effect, 100 complete control, read-out: Plant response rating, Ragweed",0%
same,pest or weed control at 125 g/ha,"[14]; 125 g ai/ha, postemergence, visual injury on 0 to 100 scale (0 no effect, 100 complete control), approx. 10 d, read-out: Ryegrass, Italian plant response rating",40%
same,pest or weed control at 31 g/ha,"[14]; Postemergence, 31 g ai/ha, visual injury after approx. 10 d, 0 to 100 scale, 0 no effect, 100 complete control, read-out: Plant response rating, Ryegrass, Italian",0%
same,plant injury at 125 g/ha,"[15]; 125 g ai/ha, postemergence, visual injury on 0 to 100 scale (0 no effect, 100 complete control), approx. 10 d, read-out: Wheat plant response rating",20%
same,plant injury at 31 g/ha,"[15]; Postemergence, 31 g ai/ha, visual injury after approx. 10 d, 0 to 100 scale, 0 no effect, 100 complete control, read-out: Plant response rating, Wheat",0%
same,pest or weed control at 250 g/ha,[16],0%
same,pest or weed control at 250 g/ha,[17],100%
same,pest or weed control at 250 g/ha,rice (Oryra sativa),0%
same,pest or weed control at 250 g/ha,[18],0%
